Results from ChEMBL document CHEMBL1147642, “Elimination of antibacterial activities of non-peptide luteinizing hormone-releasing hormone (LHRH) antagonists derived from erythromycin A” (Bioorg Med Chem Lett, 2004).
≈ marks a conversion by molar mass, not a printed value.

How the values were obtained:
Staphylococcus aureus = assay: Minimum inhibitory activity against Staphylococcus aureus ATCC 6538P; assay type: functional
Streptococcus pyogenes = assay: Minimum inhibitory activity against Streptococcus pyogenes EES61; assay type: functional
Micrococcus luteus = assay: Minimum inhibitory activity against Micrococcus luteus ATCC 9341; assay type: functional
Streptococcus agalactiae = assay: Minimum inhibitory activity against Streptococcus agalactiae CMX 508; assay type: functional
Streptococcus equinus = assay: Minimum inhibitory activity against Streptococcus bovis A-5169; assay type: functional
Enterococcus faecium = assay: Minimum inhibitory activity against Enterococcus faecium ATCC 8043; assay type: functional
[1] = test system: Staphylococcus epidermidis; assay: Minimum inhibitory activity against Staphylococcus epidermidis 3519; assay type: functional
[2] = biological target: T1, Gonadotropin-releasing hormone receptor (Homo sapiens, UniProt P30968); assay: Binding affinity against human luteinizing releasing hormone receptor cloned in CHO cells; assay type: cell-based
T1 sequence (P30968 whole entry): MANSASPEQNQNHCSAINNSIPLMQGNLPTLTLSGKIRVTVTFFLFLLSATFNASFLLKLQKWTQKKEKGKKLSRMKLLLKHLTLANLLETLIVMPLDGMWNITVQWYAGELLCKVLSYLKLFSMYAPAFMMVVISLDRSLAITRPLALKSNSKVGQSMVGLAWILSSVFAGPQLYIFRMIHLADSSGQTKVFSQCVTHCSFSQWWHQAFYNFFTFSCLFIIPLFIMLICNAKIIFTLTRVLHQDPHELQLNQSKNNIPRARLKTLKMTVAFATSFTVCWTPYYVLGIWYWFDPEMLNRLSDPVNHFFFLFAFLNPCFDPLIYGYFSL

Compound | MIC (Staphylococcus aureus) | MIC (Streptococcus pyogenes) | MIC (Micrococcus luteus) | MIC (Streptococcus agalactiae) | MIC (Streptococcus equinus) | MIC (Enterococcus faecium) | MIC [1] | Ki [2]
CC[C@H]1OC(=O)[C@H](C)[C@@H](OC(=O)N2C(=O)OC[C@@H]2C)[C@H](C)[C@@H](OC2O[C@H](C)C[C@H](N(C)CC3CC3)[C@H]2O)[C@@](C)(OC)C[C@@H](C)C(=O)[C@H](C)[C@H]2N(CCc3ccc(F)c(Cl)c3)C(=O)O[C@]12C (some centres undefined) | 100 mg/L (≈ 107 µM) | 0.39 mg/L (≈ 0.416 µM) | 1.56 mg/L (≈ 1.66 µM) | 0.39 mg/L (≈ 0.416 µM) | 0.39 mg/L (≈ 0.416 µM) | 1.56 mg/L (≈ 1.66 µM) | 50 mg/L (≈ 53.3 µM) | 
CCC(C)N(CC1CC1)[C@H]1C[C@@H](C)OC(O[C@@H]2[C@@H](C)[C@H](OC3C[C@@](C)(OC)[C@@H](O)[C@H](C)O3)[C@@H](C)C(=O)O[C@H](CC)[C@@]3(C)OC(=O)N(CCc4ccc(Cl)cc4)[C@@H]3[C@@H](C)C(=O)[C@H](C)C[C@]2(C)OC)[C@@H]1O (some centres undefined) | > 100 mg/L | > 100 mg/L | > 100 mg/L | > 100 mg/L | > 100 mg/L | > 100 mg/L | > 100 mg/L | 0.0275 µM
CC[C@H]1OC(=O)[C@H](C)[C@@H](OC2C[C@@](C)(OC)[C@@H](O)[C@H](C)O2)[C@H](C)[C@@H](OC2O[C@H](C)C[C@H](N(C)C3CCCC3)[C@H]2O)[C@@](C)(OC)C[C@@H](C)C(=O)[C@H](C)[C@H]2N(CCc3ccc(Cl)c(Cl)c3)C(=O)O[C@]12C (some centres undefined) | > 100 mg/L | 3.1 mg/L (≈ 3.1 µM) | 3.1 mg/L (≈ 3.1 µM) | 3.1 mg/L (≈ 3.1 µM) | 3.1 mg/L (≈ 3.1 µM) | 3.1 mg/L (≈ 3.1 µM) | > 100 mg/L | 0.00151 µM
CC[C@H]1OC(=O)[C@H](C)[C@@H](OC(=O)N2C(=O)OC[C@@H]2C)[C@H](C)[C@@H](OC2O[C@H](C)C[C@H](N(C)C3CCCC3)[C@H]2O)[C@@](C)(OC)C[C@@H](C)C(=O)[C@H](C)[C@H]2N(CCc3ccc(Cl)cc3)C(=O)O[C@]12C (some centres undefined) | > 100 mg/L | 3.1 mg/L (≈ 3.32 µM) | 12.5 mg/L (≈ 13.4 µM) | 3.1 mg/L (≈ 3.32 µM) | 3.1 mg/L (≈ 3.32 µM) | 6.2 mg/L (≈ 6.63 µM) | > 100 mg/L | 0.00389 µM
CC[C@H]1OC(=O)[C@H](C)[C@@H](OC2C[C@@](C)(OC)[C@@H](O)[C@H](C)O2)[C@H](C)[C@@H](OC2O[C@H](C)C[C@H](N(C)C(C)C)[C@H]2O)[C@@](C)(OC)C[C@@H](C)C(=O)[C@H](C)[C@H]2N(CCc3ccc(Cl)cc3)C(=O)O[C@]12C (some centres undefined) | 1.56 mg/L (≈ 1.66 µM) |  |  | 0.02 mg/L (≈ 0.0213 µM) | 0.2 mg/L (≈ 0.213 µM) | 0.2 mg/L (≈ 0.213 µM) | 1.56 mg/L (≈ 1.66 µM) | 
CC[C@H]1OC(=O)[C@H](C)[C@@H](OC(=O)N2C(=O)OC[C@@H]2C)[C@H](C)[C@@H](OC2O[C@H](C)C[C@H](N(C)C(C)C)[C@H]2O)[C@@](C)(OC)C[C@@H](C)C(=O)[C@H](C)[C@H]2N(CCc3ccc(Cl)cc3)C(=O)O[C@]12C (some centres undefined) | 25 mg/L (≈ 27.5 µM) | 0.02 mg/L (≈ 0.022 µM) | 0.78 mg/L (≈ 0.859 µM) |  | 0.1 mg/L (≈ 0.11 µM) | 0.78 mg/L (≈ 0.859 µM) | 25 mg/L (≈ 27.5 µM) | 
CC[C@H]1OC(=O)[C@H](C)[C@@H](O)[C@H](C)[C@@H](OC2O[C@H](C)C[C@H](N(C)C)[C@H]2O)[C@@](C)(OC)C[C@@H](C)C(=O)[C@H](C)[C@H]2N(CCc3ccc(Cl)cc3)C(=O)O[C@]12C (some centres undefined) | 12.5 mg/L (≈ 16.6 µM) |  | 0.78 mg/L (≈ 1.04 µM) | 0.02 mg/L (≈ 0.0265 µM) |  | 1.56 mg/L (≈ 2.07 µM) | 12.5 mg/L (≈ 16.6 µM) | 
CC[C@H]1OC(=O)[C@H](C)[C@@H](OC2C[C@@](C)(OC)[C@@H](O)[C@H](C)O2)[C@H](C)[C@@H](OC2O[C@H](C)C[C@H](NC)[C@H]2O)[C@@](C)(OC)C[C@@H](C)C(=O)[C@H](C)[C@H]2N(CCc3ccc(Cl)cc3)C(=O)O[C@]12C (some centres undefined) | 1.56 mg/L (≈ 1.74 µM) | 0.1 mg/L (≈ 0.111 µM) | 0.2 mg/L (≈ 0.223 µM) | 0.05 mg/L (≈ 0.0557 µM) | 0.2 mg/L (≈ 0.223 µM) | 0.39 mg/L (≈ 0.435 µM) | 1.56 mg/L (≈ 1.74 µM) | 0.0794 µM
CC[C@H]1OC(=O)[C@H](C)[C@@H](OC2C[C@@](C)(OC)[C@@H](O)[C@H](C)O2)[C@H](C)[C@@H](OC2O[C@H](C)C[C@H](N(C)CC3CC3)[C@H]2O)[C@@](C)(OC)C[C@@H](C)C(=O)[C@H](C)[C@H]2N(CCc3ccc(Cl)cc3)C(=O)O[C@]12C (some centres undefined) | > 100 mg/L |  |  | 1.56 mg/L (≈ 1.64 µM) |  | 1.56 mg/L (≈ 1.64 µM) | > 100 mg/L | 0.0132 µM
CC[C@H]1OC(=O)[C@H](C)[C@@H](OC(=O)N2C(=O)OC[C@@H]2C)[C@H](C)[C@@H](O[C@@H]2O[C@H](C)C[C@H](N(C)CC3CC3)[C@H]2O)[C@@](C)(OC)C[C@@H](C)C(=O)[C@H](C)[C@H]2N(CCc3ccc(Cl)c(Cl)c3)C(=O)O[C@]12C | > 100 mg/L | 0.78 mg/L (≈ 0.817 µM) | 3.1 mg/L (≈ 3.25 µM) | 0.78 mg/L (≈ 0.817 µM) | 0.78 mg/L (≈ 0.817 µM) | 3.1 mg/L (≈ 3.25 µM) | > 100 mg/L | 
CC[C@H]1OC(=O)[C@H](C)[C@@H](OC2C[C@@](C)(OC)[C@@H](O)[C@H](C)O2)[C@H](C)[C@@H](OC2O[C@H](C)C[C@H](N(C)C3CCCCC3)[C@H]2O)[C@@](C)(OC)C[C@@H](C)C(=O)[C@H](C)[C@H]2N(CCc3ccc(Cl)cc3)C(=O)O[C@]12C (some centres undefined) | > 100 mg/L | 0.78 mg/L (≈ 0.796 µM) | 12.5 mg/L (≈ 12.8 µM) | 12.5 mg/L (≈ 12.8 µM) | 3.1 mg/L (≈ 3.16 µM) | 25 mg/L (≈ 25.5 µM) | > 100 mg/L | 0.204 µM
CC[C@H]1OC(=O)[C@H](C)[C@@H](OC2C[C@@](C)(OC)[C@@H](O)[C@H](C)O2)[C@H](C)[C@@H](OC2O[C@H](C)C[C@H](N(C)C)[C@H]2O)[C@@](C)(OC)C[C@@H](C)C(=O)[C@H](C)[C@H]2N(CCc3ccc(Cl)cc3)C(=O)O[C@]12C (some centres undefined) | 0.39 mg/L (≈ 0.428 µM) |  | 0.05 mg/L (≈ 0.0549 µM) | 0.2 mg/L (≈ 0.219 µM) | 0.2 mg/L (≈ 0.219 µM) | 0.1 mg/L (≈ 0.11 µM) | 0.39 mg/L (≈ 0.428 µM) | 0.191 µM
CC[C@H]1OC(=O)[C@H](C)[C@@H](OC(=O)N2C(=O)OC[C@@H]2C)[C@H](C)[C@@H](OC2O[C@H](C)C[C@H](N(CC3CC3)CC3CC3)[C@H]2O)[C@@](C)(OC)C[C@@H](C)C(=O)[C@H](C)[C@H]2N(CCc3ccc(Cl)c(Cl)c3)C(=O)O[C@]12C (some centres undefined) | > 100 mg/L | 50 mg/L (≈ 50.2 µM) | 100 mg/L (≈ 100 µM) | 100 mg/L (≈ 100 µM) | 50 mg/L (≈ 50.2 µM) | > 100 mg/L | > 100 mg/L | 0.00129 µM
CC[C@H]1OC(=O)[C@H](C)[C@@H](OC2C[C@@](C)(OC)[C@@H](O)[C@H](C)O2)[C@H](C)[C@@H](OC2O[C@H](C)C[C@H](N(CC3CC3)CC3CC3)[C@H]2O)[C@@](C)(OC)C[C@@H](C)C(=O)[C@H](C)[C@H]2N(CCc3ccc(F)c(Cl)c3)C(=O)O[C@]12C (some centres undefined) | > 100 mg/L | 25 mg/L (≈ 24.8 µM) | 25 mg/L (≈ 24.8 µM) | 50 mg/L (≈ 49.5 µM) | 25 mg/L (≈ 24.8 µM) | 25 mg/L (≈ 24.8 µM) | > 100 mg/L | 0.000851 µM
CC[C@H]1OC(=O)[C@H](C)[C@@H](OC(=O)N2C(=O)OC[C@@H]2C)[C@H](C)[C@@H](OC2O[C@H](C)C[C@H](N(C)C3CCCCC3)[C@H]2O)[C@@](C)(OC)C[C@@H](C)C(=O)[C@H](C)[C@H]2N(CCc3ccc(Cl)c(Cl)c3)C(=O)O[C@]12C (some centres undefined) | > 100 mg/L | 6.2 mg/L (≈ 6.31 µM) | > 100 mg/L | 6.2 mg/L (≈ 6.31 µM) | 6.2 mg/L (≈ 6.31 µM) | > 100 mg/L | > 100 mg/L | 0.00724 µM
CC[C@H]1OC(=O)[C@H](C)[C@@H](OC(=O)N2C(=O)OC[C@@H]2C)[C@H](C)[C@@H](OC2O[C@H](C)C[C@H](N(C)CC3CC3)[C@H]2O)[C@@](C)(OC)C[C@@H](C)C(=O)[C@H](C)[C@H]2N(CCc3ccc(Cl)cc3)C(=O)O[C@]12C (some centres undefined) | 100 mg/L (≈ 109 µM) | 0.78 mg/L (≈ 0.847 µM) | 12.5 mg/L (≈ 13.6 µM) | 1.56 mg/L (≈ 1.69 µM) | 0.78 mg/L (≈ 0.847 µM) | 3.1 mg/L (≈ 3.37 µM) | > 100 mg/L | 0.0186 µM
CC[C@H]1OC(=O)[C@H](C)[C@@H](OC2C[C@@](C)(OC)[C@@H](O)[C@H](C)O2)[C@H](C)[C@@H](OC2O[C@H](C)C[C@H](N(C)C3CCCC3)[C@H]2O)[C@@](C)(OC)C[C@@H](C)C(=O)[C@H](C)[C@H]2N(CCc3ccc(Cl)cc3)C(=O)O[C@]12C (some centres undefined) | 25 mg/L (≈ 25.9 µM) | 0.78 mg/L (≈ 0.808 µM) | 1.56 mg/L (≈ 1.62 µM) | 0.78 mg/L (≈ 0.808 µM) | 0.78 mg/L (≈ 0.808 µM) | 1.56 mg/L (≈ 1.62 µM) | 50 mg/L (≈ 51.8 µM) | 0.00759 µM
CC[C@H]1OC(=O)[C@H](C)[C@@H](O[C@H]2C[C@@](C)(OC)[C@@H](O)[C@H](C)O2)[C@H](C)[C@@H](O[C@@H]2O[C@H](C)C[C@H](N(C)C)[C@H]2O)[C@](C)(O)C[C@@H](C)C(=O)[C@H](C)[C@@H](O)[C@]1(C)O [ERYTHROMYCIN] | 0.2 mg/L (≈ 0.273 µM) | 0.05 mg/L (≈ 0.0681 µM) | 0.02 mg/L (≈ 0.0273 µM) | 0.05 mg/L (≈ 0.0681 µM) | 0.05 mg/L (≈ 0.0681 µM) | 0.05 mg/L (≈ 0.0681 µM) | 0.2 mg/L (≈ 0.273 µM) | 
